Results: patent US20090069300A1, “ISOQUINOLINYL AND ISOINDOLINYL DERIVATIVES AS HISTAMINE-3 ANTAGONISTS” (Wyeth, priority 2007, published 2009)
Structures can show the parent of a compound that is named as a salt.

First: O=C1c2ccc(-c3cccc(F)c3)cc2CCN1CCN1CCCC1 (as salt: hydrochloride) [Example 18, 6-(3-fluorophenyl)-2-(2-pyrrolidin-1-ylethyl)-3,4-dihydroisoquinolin-1(2H)-one]
Second: O=C1c2ccc(-c3cccc(C(F)(F)F)c3)cc2CCN1CCN1CCCC1 (as salt: hydrochloride) [Example 20, 2-(2-pyrrolidin-1-ylethyl)-6-[3-(trifluoromethyl)phenyl]-3,4-dihydroisoquinolin-1(2H)-one]
The melting point of the first is higher: 182 to 184 °C for the first, 138 to 139 °C for the second.

N#Cc1ccc(-c2ccc3c(c2)CCN(CCN2CCCC2)C3=O)cc1 (as salt: hydrochloride) [Example 19, 4-[1-oxo-2-(2-pyrrolidin-1-ylethyl)-1,2,3,4-tetrahydroisoquinolin-6-yl]benzonitrile] and N#Cc1ccc(-c2ccc3c(c2)CCN(CCCN2CCCCC2)C3=O)cc1 (as salt: hydrochloride) [Example 45, 4-[1-oxo-2-(3-piperidin-1-ylpropyl)-1,2,3,4-tetrahydroisoquinolin-6-yl]benzonitrile hydrochloride] cannot be ordered by melting point: 249 to 251 °C for the first, 249 to 250 °C for the second.

Compared with O=C1c2ccc(-c3ccc4c(c3)OCO4)cc2CCN1CCN1CCCC1 (as salt: hydrochloride) [Example 21, 6-(1,3-benzodioxol-5-yl)-2-(2-pyrrolidin-1-ylethyl)-3,4-dihydroisoquinolin-1(2H)-one], O=C1c2ccc(-c3ccc(F)cc3)cc2CCN1CCN1CCCCC1 (as salt: hydrochloride) [Example 43, 6-(4-fluorophenyl)-2-(2-piperidin-1-ylethyl)-3,4-dihydroiso-quinolin-1(2H)-one hydrochloride] is lower in melting point: 249 to 251 °C for the first, 241 to 243 °C for the second.

Compared with O=C1c2ccc(-c3ccc(C(F)(F)F)cc3)cc2CCN1CCN1CCCC1 (as salt: hydrochloride) [Example 22, 2-(2-pyrrolidin-1-ylethyl)-6-[4-(trifluoromethyl)phenyl]-3,4-dihydroisoquinolin-1(2H)-one], COc1ccc(-c2ccc3c(c2)CCN(CCN2CCCC2)C3=O)cc1 (as salt: hydrochloride) [Example 23, 6-(4-methoxyphenyl)-2-(2-pyrrolidin-1-ylethyl)-3,4-dihydroisoquinolin-1(2H)-one] is lower in melting point: 243 to 244 °C for the first, 224 to 225 °C for the second.

First: C[C@@H]1CCCN1CCN1CCc2c(cccc2-c2cccc(C#N)c2)C1=O (as salt: hydrochloride) [Example 27, 3-(2-{2-[(2R)-2-methylpyrrolidin-1-yl]ethyl}-1-oxo-1,2,3,4-tetrahydroisoquinolin-5-yl)benzonitrile]
Second: C[C@@H]1CCCN1CCN1CCc2cc(Oc3ccc(C#N)cc3)ccc2C1=O (as salt: hydrochloride) [Example 49, 4-[(2-{2-[(2R)-2-methylpyrrolidin-1-yl]ethyl}-1-oxo-1,2,3,4-tetrahydroisoquinolin-6-yl)oxy]benzonitrile]
The melting point of the first is lower: 203 to 205 °C for the first, 254 to 255 °C for the second.

First: N#Cc1cccc(-c2ccc3c(c2)CCN(CCCN2CCCC2)C3=O)c1 (as salt: hydrochloride) [Example 33, 3-[1-oxo-2-(3-pyrrolidin-1-ylpropyl)-1,2,3,4-tetrahydroisoquinolin-6-yl]benzonitrile]
Second: N#Cc1ccc(Oc2ccc3c(c2)CCN(CCN2CCCC2)C3=O)cc1 (as salt: hydrochloride) [Example 50, 4-{[1-oxo-2-(2-pyrrolidin-1-ylethyl)-1,2,3,4-tetrahydroisoquinolin-6-yl]oxy}benzonitrile]
The melting point of the first is higher: 175 to 176 °C for the first, 146 to 147 °C for the second.

First: N#Cc1ccc2c(ccn2-c2ccc3c(c2)CCN(CCN2CCCC2)C3=O)c1 (as salt: hydrochloride) [Example 35, 1-[1-oxo-2-(2-pyrrolidin-1-ylethyl)-1,2,3,4-tetrahydroisoquinolin-6-yl]-1H-indole-5-carbonitrile Hydrochloride]
Second: N#Cc1ccc(Oc2ccc3c(c2)CCN(CCN2CCCC2)C3=O)nc1 (as salt: hydrochloride) [Example 47, 6-{[1-oxo-2-(2-pyrrolidin-1-ylethyl)-1,2,3,4-tetrahydroisoquinolin-6-yl]oxy}nicotinonitrile]
The melting point of the first is higher: 215 to 217 °C for the first, 189 to 190 °C for the second.

Compared with O=C1c2ccc(-n3cccn3)cc2CCN1CCN1CCCC1 (as salt: hydrochloride) [Example 37, 6-(1H-pyrazol-1-yl)-2-(2-(pyrrolidin-1-yl)ethyl)-3,4-dihydroisoquinolin-1(2H)-one hydrochloride], N#Cc1ccc(Oc2ccc3c(c2)CCN(CCN2CCCC2)C3=O)cn1 (as salt: hydrochloride) [Example 52, 5-{[1-oxo-2-(2-pyrrolidin-1-ylethyl)-1,2,3,4-tetrahydroisoquinolin-6-yl]oxy}pyridine-2-carbonitrile] is higher in melting point: 174 to 175 °C for the first, 203 to 205 °C for the second.

Compared with O=C(c1ccc2c(c1)CCN(CCN1CCCC1)C2=O)N1CCCC1 (as salt: hydrochloride) [Example 38, 6-(pyrrolidin-1-ylcarbonyl)-2-(2-pyrrolidin-1-ylethyl)-3,4-dihydroisoquinolin-1(2H)-one hydrochloride], O=C(c1ccc(-c2ccc3c(c2)CCN(CCN2CCCC2)C3=O)cc1)N1CCCC1 (as salt: hydrochloride) [Example 54, 6-[4-(pyrrolidin-1-ylcarbonyl)phenyl]-2-(2-pyrrolidin-1-ylethyl)-3,4-dihydroisoquinolin-1(2H)-one hydrochloride] is higher in melting point: 194 to 196 °C for the first, 245 to 248 °C for the second.

Compared with C[C@H]1CCCN1CCN1CCc2cc(-c3ccc(F)cc3)ccc2C1=O (as salt: hydrochloride) [Example 39, 6-(4-fluorophenyl)-2-{2-[(2S)-2-methylpyrrolidin-1-yl]ethyl}-3,4-dihydroiso-quinolin-1(2H)-one hydrochloride], C[C@@H]1CCCN1CCN1CCc2cc(-c3ccc(F)cc3)ccc2C1=O (as salt: hydrochloride) [Example 40, 6-(4-fluorophenyl)-2-{2-[(2R)-2-methylpyrrolidin-1-yl]ethyl}-3,4-dihydroisoquinolin-1(2H)-one] is lower in melting point: 244 to 247 °C for the first, 236 to 238 °C for the second.

First: C[C@@H]1CCCN1CCN1CCc2cc(Oc3ccc(C#N)cn3)ccc2C1=O (as salt: hydrochloride) [Example 48, 6-[(2-{2-[(2R)-2-methylpyrrolidin-1-yl]ethyl}-1-oxo-1,2,3,4-tetrahydroisoquinolin-6-yl)oxy]nicotinonitrile]
Second: C[C@@H]1CCCN1CCN1CCc2cc(Oc3ccc(C#N)nc3)ccc2C1=O (as salt: hydrochloride) [Example 51, 5-[(2-{2-[(2R)-2-methylpyrrolidin-1-yl]ethyl}-1-oxo-1,2,3,4-tetrahydroisoquinolin-6-yl)oxy]pyridine-2-carbonitrile]
The melting point of the first is lower: 184 to 185 °C for the first, 218 to 220 °C for the second.

First: O=C(NC1CC1)c1ccc(-c2ccc3c(c2)CCN(CCN2CCCC2)C3=O)cc1 (as salt: hydrochloride) [Example 57, N-cyclopropyl-4-[1-oxo-2-(2-pyrrolidin-1-ylethyl)-1,2,3,4-tetrahydroisoquinolin-6-yl]benzamide]
Second: CNC(=O)c1ccc(-c2ccc3c(c2)CCN(CCN2CCCC2)C3=O)cc1 (as salt: hydrochloride) [Example 59, N-methyl-4-[1-oxo-2-(2-pyrrolidin-1-ylethyl)-1,2,3,4-tetrahydroisoquinolin-6-yl]benzamide]
The melting point of the first is lower: 222 to 224 °C for the first, 235 to 236 °C for the second.
